Test results: patent US20090099135A1, “Pest control compositions and methods” (priority 2007, published 2009)

Key:
TyrR = biological target: T1, TyrR (Drosophila melanogaster, UniProt P22270); experiment: TyrR competition binding assay (% binding inhibition)
T1 sequence (P22270 27-601): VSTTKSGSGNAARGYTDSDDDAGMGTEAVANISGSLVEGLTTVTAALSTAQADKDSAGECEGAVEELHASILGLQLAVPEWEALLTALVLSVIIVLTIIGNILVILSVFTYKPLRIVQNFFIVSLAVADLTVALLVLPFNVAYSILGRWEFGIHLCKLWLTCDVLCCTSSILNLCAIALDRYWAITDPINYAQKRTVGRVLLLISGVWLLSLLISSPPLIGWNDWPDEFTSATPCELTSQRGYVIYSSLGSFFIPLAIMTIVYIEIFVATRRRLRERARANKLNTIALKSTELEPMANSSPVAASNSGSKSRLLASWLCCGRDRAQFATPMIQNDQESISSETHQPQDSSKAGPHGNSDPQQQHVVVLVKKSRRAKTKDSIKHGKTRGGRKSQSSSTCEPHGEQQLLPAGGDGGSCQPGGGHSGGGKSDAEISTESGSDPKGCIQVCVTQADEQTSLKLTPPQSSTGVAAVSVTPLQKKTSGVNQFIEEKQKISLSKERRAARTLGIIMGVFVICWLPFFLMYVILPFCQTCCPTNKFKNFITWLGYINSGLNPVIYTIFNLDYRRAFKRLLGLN
Description: When the chemical(s) and compound(s) are combined to provide the compositions of the present invention, there is a synergistic effect.
(§1) To determine the affinities of several ligands for TyrR, increasing concentration of several compounds are tested for their ability to inhibit binding of about 2 nM ^3H-tyramine. For both saturation and inhibition assays total and non-specific binding is determined in the absence and presence of about 10 μM unlabeled-tyramine, respectively. Receptor binding reactions are incubated for about 1 hour at room temperature (RT) in restricted light. Reactions are terminated by filtration through GF/C filters (VWR), which have been previously soaked in about 0.3% polyethyleneimine (PEI). The filters are washed one time with about 4 ml ice cold Tris buffer and air dried before retained radioactivity is measured using LSC. Binding data is analyzed by curve fitting (GraphPad software, Prism).

[1] = test system: Blattella germanica (German cockroaches); experiment: Pesticidal effect against German cockroaches (KD and 100% kill time); format: in vivo
Description: With reference to Table 15, the pesticidal effect against Blattella germanica (German cockroaches) was determined for DM, Blend 12, and the composition including DM and Blend 12.
A synergistic effect was shown for the combination treatment that results in an average KD of the insects in 5 sec, and 100% killing of the insects in 17 seconds.

Whitefly (on zucchini) = experiment: Interim field plot ratings, South Georgia: whitefly on zucchini; format: in vivo; conditions: rate not given; 1 wk after treatment
aphids (on cotton) = experiment: Interim field plot ratings, South Georgia: aphids on cotton; format: in vivo; conditions: rate not given; 1 wk after treatment
Thrips (on cotton) = experiment: Interim field plot ratings, South Georgia: thrips on cotton; format: in vivo; conditions: rate not given; 1 wk after treatment
[2] = Interim field plot ratings, South Georgia: flower damage rating; format: in vivo; conditions: rate not given; 1 wk after treatment
tyramine receptor (TyrR) [3] = biological target: T2, tyramine receptor (TyrR) (Drosophila melanogaster, UniProt P22270); experiment: Inhibition binding of 3H-tyramine to membranes of Schneider cells expressing tyramine receptor; conditions: compared with tyramine
T2 construct: oligonucleotides that are used to amplify the open reading frame of the Drosophila tyramine receptor (TyrR); expressed in transfected cells
T2 sequence (P22270 27-601): T1 sequence (P22270 27-601)
Description: To study the kinetics of the tyramine receptor in stably transfected cells with pAcB-TyrR, crude membrane fractions are prepared from the transfected cells and used to calculate the equilibrium dissociation constant (Kd), Maximum Binding Capacity (Bmax), equilibrium inhibitor dissociation constant (Ki) and EC50 (effective concentration at which binding is inhibited by 50%). A preliminary study to determine the optimum concentration of membrane protein for receptor binding activity is performed. In this study, different concentrations of protein (about 10-50 μg/reaction) are incubated in about 1 ml binding buffer (50 mM Tris, pH 7.4, 5 mM MgCl2 and 2 mM ascorbic acid). The reaction is initiated by the addition of about 5 nM ^3H-tyramine with and without about […] unlabeled tyramine. After about 1 hr incubation at room temperature, reactions are terminated by filtration through GF/C filters (VWR), which have been previously soaked in about 0.3% polyethyleneimine (PEI). The filters are washed one time with about 4 ml ice cold Tris buffer and air dried before the retained radioactivity is measured using LSC. Binding data is analyzed by curve fitting (GraphPad software, Prism). […] Therefore, about 10 μg protein/reaction is used.
as §1

Aedes aegypti = experiment: Pesticidal effect (KD) against Aedes aegypti; format: in vivo
Description: With reference to FIG. 4A, the pesticidal effect against Aedes aegypti was determined for Blend 23 (labeled “HL1”) and the composition including CL and Blend 23.
Similarly, with reference to FIG. 4B, the pesticidal effect against Aedes aegypti was determined for Blend 23 (labeled “HL1”) and the composition including CL and Blend 23.
Similarly, with reference to FIG. 4C, the pesticidal effect against Aedes aegypti was determined for Blend 23 (labeled “HL1”) and the composition including Imidacloprid and Blend 23.

Periplaneta americana = experiment: Pesticidal effect (mortality) against Periplaneta americana; format: in vivo; conditions: Blend 23 5%
Description: With reference to FIG. 6A, the pesticidal effect against Periplaneta americana was determined for Blend 23 (labeled “HL1”) and the composition including CL and Blend 23.
With reference to FIG. 6B, the pesticidal effect against Periplaneta americana was determined for Blend 23 (labeled “HL1”) and the composition including Imidacloprid and Blend 23.

Culex quinquefasciatus = experiment: Repellency effect against Culex quinquefasciatus (biting counts on volunteers' legs); format: in vivo
Description: The repellency of exemplary compositions of the present invention are compared to the repellency of their individual ingredients, and to a non-treated control. Southern house mosquitoes, Culex quinquefasciatus, are obtained as test organisms. Multiple human evaluators test each treatment in a replicated experiment. Experimentation is conducted in a laboratory using multiple-chambered, plexiglass modules, each chamber stocked with about 2-10 day-old colony-reared female mosquitoes. The modules are equipped with sliding doors to expose the mosquitoes to the legs of three volunteers. Treatments are applied at about 28.6 μl to 12 cm^2 rectangular sections of skin located directly beneath the chamber openings. Each volunteer conducts 2-minute biting counts for each treatment at five time intervals: 0, 1, 2, 4 & 6 hours post-treatment. New mosquitoes are stocked into the chamber for each time interval. Ambient temperature and humidity data is recorded with a HOBO datalogger. Percent repellency is determined according to the following formula: Control−Treatment/Control X 100.

tyramine receptor = biological target: T3, tyramine receptor (Drosophila melanogaster, UniProt P22270); experiment: Whole cell 3H-tyramine binding in Schneider cells transfected with tyramine receptor
T3 construct: oligonucleotides that are used to amplify the open reading frame of the Drosophila tyramine receptor (TyrR); expressed in transfected cells
T3 sequence (P22270 27-601): T1 sequence (P22270 27-601)
Description: Cells transfected with the tyramine receptor (about 1×10^6 cells/ml) are cultured in each well of a multi-well plate. About 24 hours after plating the cells, the medium is withdrawn and replaced with about 1 ml insect saline (about 23 C). Different concentrations of ^3H-tyramine (about 0.1-10 nM) are added with and without about 10 μM unlabeled tyramine and incubated at room temperature (RT). After about a 20 minute incubation, the reaction is stopped by rapid aspiration of the saline and at least one wash with about 2 ml insect saline (about 23 C). Cells are solubilized in about 300 μl 0.3M NaOH for about 20 min at RT. Solubilized cells are transferred into about 4 ml Liquid Scintillation Solution (LSS) and vigorously vortexed for about 30 sec before counting the radioactivity using a Liquid Scintillation P-counter (Beckman, Model LS1801) (LSC).
Receptor specific binding data is expressed as fmol specific binding per 1×10^6 cells and measured as a function of ^3H-tyramine concentration. Specific binding values are calculated as the difference between values in the absence of and values in the presence of about 10 μM unlabeled tyramine. The maximum specific binding occurs at about 5 nM ^3H-tyramine.

Drosophila sp. = experiment: Pesticidal effect (KD) against Drosophila sp.; format: in vivo; conditions: FIG. 4D; Imidacloprid 50 ppm; Blend 23 2.5%; combination of both
Description: Similarly, with reference to FIG. 4D, the pesticidal effect against Drosophila sp. was determined for Blend 23 (labeled “HL1”) and the composition including Imidacloprid and Blend 23.

tyramine receptor (TyrR) [4] = biological target: T2, tyramine receptor (TyrR); experiment: Saturation binding of 3H-tyramine to membranes of Schneider cells expressing tyramine receptor; conditions: membranes of cells stably transfected with pAcB-TyrR
Description: To study the kinetics of the tyramine receptor in stably transfected cells with pAcB-TyrR, crude membrane fractions are prepared from the transfected cells and used to calculate the equilibrium dissociation constant (Kd), Maximum Binding Capacity (Bmax), equilibrium inhibitor dissociation constant (Ki) and EC50 (effective concentration at which binding is inhibited by 50%). A preliminary study to determine the optimum concentration of membrane protein for receptor binding activity is performed. In this study, different concentrations of protein (about 10-50 μg/reaction) are incubated in about 1 ml binding buffer (50 mM Tris, pH 7.4, 5 mM MgCl2 and 2 mM ascorbic acid). The reaction is initiated by the addition of about 5 nM ^3H-tyramine with and without about […] unlabeled tyramine. After about 1 hr incubation at room temperature, reactions are terminated by filtration through GF/C filters (VWR), which have been previously soaked in about 0.3% polyethyleneimine (PEI). The filters are washed one time with about 4 ml ice cold Tris buffer and air dried before the retained radioactivity is measured using LSC. […]
To determine Bmax and Kd values for tyramine receptor (TyrR) in membranes expressing TyrR, saturation binding experiments are performed. […] Binding data is analyzed by curve fitting (GraphPad software, Prism) and the Kd for tyramine binding to its receptor is determined. […]

With `CC1(C)[C@H](C(=O)O[C@H](C#N)c2cccc(Oc3ccccc3)c2)[C@@H]1C=C(Br)Br` [DM, deltamethrin] the “% TyrR Binding Inhibition” value (TyrR) was 10%, the “100% Kill (time)” value ([1]; Example 4, DM 0.037 mg/cm^2, Blend 12 1.9 mg/cm^2) was 15 min and the “100% Kill (time)” value ([1]; Table 16, DM 0.037 mg/cm^2) was 12 min. For the same molecule, the “Whitefly (on zucchini) Adult, insect count” value (Whitefly (on zucchini)) was 18, the “Whitefly (on zucchini) Nymph, insect count” value (Whitefly (on zucchini)) was 142 and the “aphids (on cotton) Adults, insect count” value (aphids (on cotton)) was 15. For the same molecule, the “aphids (on cotton) Nymph, insect count” value (aphids (on cotton)) was 26, the “Thrips (on cotton), insect count” value (Thrips (on cotton)) was 13 and the “Flower damage (1-5 rating scale; 1 = no damage)” value [2] was 2.2.

For `NCCc1c[nH]c2ccc(O)cc12` [serotonin, Serotonin], the “efficiency at displacing 3H-tyramine binding” value (from here on “efficiency”) (tyramine receptor (TyrR) [3]) was “less efficient than tyramine”.

With `NCC(O)c1ccc(O)cc1` (stereo not shown) [Octopamine] the “efficiency” value (tyramine receptor (TyrR) [3]) was “less efficient than tyramine”.

In the case of `CN/C(=N\[N+](=O)[O-])NCc1cnc(Cl)s1` [CL, clothianidin], the “KD of target insect” value (Aedes aegypti; FIG. 4A, CL alone 500 ppm, CL 167 ppm combined with 2.5% Blend 23) is reported as “no KD”, the “KD of target insect” value (Aedes aegypti; FIG. 4B, CL alone 250 ppm, CL 167 ppm combined with 2.5% Blend 23) is reported as “no KD” and the “mortality 30 minutes post-treatment” value (Periplaneta americana; FIG. 6A, CL 0.05%, combination of both) is reported as “no mortality”.

For `CCN(CC)C(=O)c1cccc(C)c1` [DEET, N,N-DIETHYL-3-METHYLBENZAMIDE], the “Percent repellency, 0” value (Culex quinquefasciatus; 0 hours post-treatment) was 40%, the “Percent repellency, 1 Hour” value (Culex quinquefasciatus; 1 hour post-treatment) was 20% and the “Percent repellency, 2 Hours” value (Culex quinquefasciatus; 2 hours post-treatment) was 10%. For the same molecule, the “Percent repellency, 4 Hours” value (Culex quinquefasciatus; 4 hours post-treatment) was 5%, the “Percent repellency, 6 Hours” value (Culex quinquefasciatus; 6 hours post-treatment) was 0% and the “Activity Ratio (repellency at 1 hour)” value (Culex quinquefasciatus; effect of composition (5% DEET and 95% Blend 9) divided by effect of comparison composition) was “(1.00)/(0.20) = 5.0”. For the same molecule, the “Synergy Coefficient (repellency at 1 hour)” value (Culex quinquefasciatus; of composition (5% DEET and 95% Blend 9) relative to comparison composition) was 100.

In the case of `NCCc1ccc(O)cc1` [Tyramine (TA), Tyramine], the “% TyrR Binding Inhibition” value (TyrR) is reported as 75% and the “response of untransfected cells” value (tyramine receptor; concentrations as high as about 100 μM) is reported as “do not respond”.

In the case of `NCCc1ccc(O)c(O)c1` [dopamine, Dopamine], the “efficiency” value (tyramine receptor (TyrR) [3]) is reported as “less efficient than tyramine”.

With `O=[N+]([O-])NC1=NCCN1Cc1ccc(Cl)nc1` [Imidacloprid, 1-[(6-Chloro-3-pyridinyl)methyl]-N-nitro-2-imidazolidinimine] the “KD of target insect at 30 seconds post-treatment” value (Aedes aegypti; FIG. 4C, Imidacloprid 250 ppm, Blend 23 2.5%, combination of both) was 20%, the “KD of target insect” value (Aedes aegypti; FIG. 5, Imidacloprid 500 ppm, B5028 5%, combination of both) was “no KD” and the “KD of target insect at 30 seconds post-treatment” value (Drosophila sp.) was 0%. For the same molecule, the “mortality 30 minutes post-treatment” value (Periplaneta americana; FIG. 6B, Imidacloprid alone 0.05%, 0.033%, 0.01%, Imidacloprid 0.033% combined with 5% Blend 23) was “no mortality”, the “Whitefly (on zucchini) Adult, insect count” value (Whitefly (on zucchini)) was 16 and the “Whitefly (on zucchini) Nymph, insect count” value (Whitefly (on zucchini)) was 5. The “aphids (on cotton) Adults, insect count” value (aphids (on cotton)) was 0.3, the “aphids (on cotton) Nymph, insect count” value (aphids (on cotton)) was 1.6 and the “Thrips (on cotton), insect count” value (Thrips (on cotton)) was 9. The “Flower damage (1-5 rating scale; 1 = no damage)” value [2] was 2.0.

In the case of `NCCc1ccc(O)cc1` [Blend 3H-tyramine, ^3H-tyramine], the “concentration at which maximum specific binding occurs” value (tyramine receptor; whole transfected cells) is reported as “about 5 nM”, the Bmax (tyramine receptor (TyrR) [4]) is reported as “about 0.679 μmol/mg protein” and the Kd (tyramine receptor (TyrR) [4]) is reported as about 1.26 nM.
